From the NIST ThermoML archive (doi:10.1016/j.jct.2006.10.009)
± gives the expanded uncertainty stated by the source.

experiment: Molar enthalpy of transition or fusion; conditions: Crystal; DSC

Compound | Molar enthalpy of transition or fusion [kJ/mol]
CCCCCCCCCC[N+](C)(C)CCCCCCCCCC.O=[N+]([O-])[O-] [Didecyldimethylammonium nitrate] | 9.88 ± 0.36

experiment: not given; conditions: Crystal; DTA

Compound | Normal melting temperature [°C]
CCCCCCCCCC[N+](C)(C)CCCCCCCCCC.O=[N+]([O-])[O-] [Didecyldimethylammonium nitrate] | 31.7 ± 4

same assay, conditions: Crystal; visual observation

Compound | Normal melting temperature [°C]
CCCCCCCCCCO [decan-1-ol] | 5.1 ± 4
CCCCCCCCCCCCCCCC [hexadecane] | 18.0 ± 4
Cc1ccccc1 [toluene] | -95.0 ± 4

Continued, values first:

Normal melting temperature [°C] | Compound
-89.4 ± 4 | CCCCO [butan-1-ol]
-94.3 ± 4 | CCCCCC [hexane]
-14.9 ± 4 | CCCCCCCCO [octan-1-ol]
-126.4 ± 4 | CCCO [propan-1-ol]
-99.0 ± 4 | CCCc1ccccc1 [propylbenzene]
